No end group written: not given here.
System: P. aeruginosa M13513
Assay: Galleria mellonella larval infection model
Type: in vivo
Source text: Lepidoptera were reared in the laboratory in a standardized manner. A breeding colony was established, and the different stages of the insect’s life cycle were documented. Adult insects were housed in a plastic container without access to food, allowing for the collection of eggs. Then, eggs and larvae were placed in containers with fresh food, prepared from autoclaved wheat bran (50%), dry yeast (5%), beeswax (6%), honey (26%), and glycerin (13%). In each growth cycle, a pool of larvae was reserved to progress to pupa and adult generation. The larvae and eggs were kept at room temperature during the warm seasons and in an oven with humidity control at 30 °C during the cold seasons. For each experiment, a group of late-stage caterpillars was set aside and kept in the dark at a temperature of 10–12 °C, ensuring their use within one week of collection. For the in vivo tests, larvae of approximately 2 cm in length and an average weight of 250 mg were used. This average weight was used to calculate the antimicrobial doses. The bacterial inoculum used in the larval infection models was prepared from an ON culture, which was washed twice with physiological saline solution and adjusted by measuring OD600nm. […] The larvae were incubated at 37 °C, and their survival was monitored for five days.

GLLRKWGKKWKEFLRRVWK-NH2 [Peptide P6.2] was tested, and the “survival compared with meropenem 2.5 alone (log-rank test)” value (P6.2 5 + Mer 2.5 vs Mer 2.5) was “not significative differences” and the “prevention of larvae death” value (peptide alone, 2.5-80 mg/kg single injection 1 h post infection, 10^3 CFU/larva, n = 10, 5 days) was “not effective”.

Source: publication PMC11940343, “In Vitro and In Vivo Evaluation of the De Novo Designed Antimicrobial Peptide P6.2 Against a KPC-Producing P. aeruginosa Clinical Isolate” (Biomolecules, 2025)
